According to patent US20170295779A9, “COMPOSITION COMPRISING A PESTICIDE AND AMIDE” (BASF SE, priority 2013, published 2017):

How the values were obtained:
barley (cultivar Lawina) = assay: Phytotoxicity greenhouse test, spray of carboxylic acid amide on barley; assay type: in vivo; settings: 3-4 leaf stage, spray 200 l/ha comprising 1500 ml carboxylic acid amide/ha, visual score vs plants treated with water only
Protocol: Phytotoxicity in accordance with the present invention is determined by an assay where a spray comprising water (aqua dest.) and carboxylic acid amide (200 l/ha comprising 1500 ml carboxylic acid amide/ha) is prepared and applied on plants of barley (cultivar […]) being in 3-4 leaf stage at a water application rate of 1.5 l/ha. The experimental period lasts for 10 days. During this time, the experimental plants receive optimum watering, with nutrients being supplied via the water used for watering. The phytotoxicity is evaluated by awarding scores to the treated plants in comparison to untreated plants, i.e. treated with water only. The evaluation scale ranges from 0% to 100% phytotoxicity. The evaluation is done by visual examination. 0% phytotoxicity means that there are no differences between treated and untreated plants. Thus, no phytotoxicity in accordance with the present invention means that the treated plants to not have plant injury and there is no difference between treated and untreated plants. Low phytotoxicity in accordance with the present invention means that only 1 to 10% of the treated plants have plant injury as compared to untreated plants. For the greenhouse tests, barley (cultivar […]) was sown and cultivated in standard soil (type P, fine) for 3 weeks. The spray mixtures were applied with a minicompressor (4 times) in a laboratory fume hood on plants being in 3-4 leaf stage. A spray comprising water (aqua dest.) and dibutylpropionamide from Example 1 (200 l/ha comprising 1500 ml dibutylpropionamide/ha) was prepared and applied at a water application rate of 1.5 l/ha. The experimental period lasted for 10 days. During this time, the experimental plants received optimum watering, with nutrients being supplied via the water used for watering. The phytotoxicity was evaluated by assessing scores to the treated plants in comparison to untreated plants, i.e. treated with water only (see Table 1). The evaluation scale ranges from 0% to 100% phytotoxicity. The evaluation was done by visual examination. Thus, 0% phytotoxicity means that there were no differences between treated and untreated plants. […] A rating of 0% phytotoxicity means no crop injury. […] A rating of 100% means the complete destruction of all plants. […] Thus, less than 10% of the plants were affected when said carboxylic acid amides were applied on the plants in a dose of 1500 ml/ha. […] Thus, carboxylic acid amides wherein the N,N-alkyl groups are having more than two carbon atoms seem to have no or almost no phytotoxic effect on the plants and can therefore be used in agricultural compositions for reducing the phytotoxicity in such compositions.

[1] = Determination of the max. solubility of fungicides in carboxylic acid amides; assay type: physicochemical
Protocol: The respective fungicide was dissolved in the solvent of interest so that a supersaturated solution was obtained. The deposit was filtered off. The concentration of the fungicide in the supernatant was determined via quantitative 1H-NMR spectroscopy.

SMILES | Phytotoxicity [%] 10 days after treatment (barley (cultivar Lawina)) | Phytotoxicity [%] 10 days after treatment (barley (cultivar Lawina); listed as dimethylpropionamide) | Solubility [%] Fluxapyroxad [1]
CCC(=O)N(C)C [Dimethylpropionamide, N,N-dimethyl-propionamide, reference compound] | 43% | up to 43% | –
CCC(=O)N(CC)CC [Diethylpropionamide, N,N-diethyl-propionamide] | 6% | – | –
CCCCCCCC(=O)N(CCCC)CCCC [C8-dibutylamide, N,N-dibutyl-octanamide] | 5% | – | –
CCCCN(CCCC)C(=O)CC [Dibutylpropionamide, N,N-dibutyl-propionamide] | 0% | – | 28%
